Results as given in the supplement of paper PMC11451515.

System: P12-Ichikawa
Assay: cell viability relative to DMSO control; higher = less cytotoxic
Settings: 48 h
Method in brief: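 Cells were incubated for 48 h at 37°C before CellTiter-Glo One luminescence was read. The cells were NOMO1 or SEM (500 cells/well) or P12-Ichikawa (1000 cells/well) leukemia cells, adapted for at least four passages in each medium and seeded in 1536-well plates (5 μl). Dosing used library compounds in DMSO applied by pin over 11 threefold points, 47 μM to 0.79 nM. Viability is the per-plate percentage of DMSO wells, with cell-free wells as background.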

[1] = HPLM + 10% dialyzed FBS, 0.000781 µM
[2] = HPLM + 10% dialyzed FBS, 0.00234 µM
[3] = HPLM + 10% dialyzed FBS, 0.00702 µM
[4] = HPLM + 10% dialyzed FBS, 0.0211 µM
[5] = HPLM + 10% dialyzed FBS, 0.0632 µM
[6] = HPLM + 10% dialyzed FBS, 0.19 µM
[7] = HPLM + 10% dialyzed FBS, 0.569 µM
[8] = HPLM + 10% dialyzed FBS, 1.71 µM
[9] = HPLM + 10% dialyzed FBS, 5.12 µM
[10] = HPLM + 10% dialyzed FBS, 15.4 µM
[11] = HPLM + 10% dialyzed FBS, 46.1 µM
[12] = RPMI 5 mM glucose + 10% FBS, 0.000781 µM
[13] = RPMI 5 mM glucose + 10% FBS, 0.00234 µM
[14] = RPMI 5 mM glucose + 10% FBS, 0.00702 µM
[15] = RPMI 5 mM glucose + 10% FBS, 0.0211 µM
[16] = RPMI 5 mM glucose + 10% FBS, 0.0632 µM
[17] = RPMI 5 mM glucose + 10% FBS, 0.19 µM
[18] = RPMI 5 mM glucose + 10% FBS, 0.569 µM
[19] = RPMI 5 mM glucose + 10% FBS, 1.71 µM
[20] = RPMI 5 mM glucose + 10% FBS, 5.12 µM
[21] = RPMI 5 mM glucose + 10% FBS, 15.4 µM
[22] = RPMI 5 mM glucose + 10% FBS, 46.1 µM
[23] = RPMI 5 mM glucose + 10% dialyzed FBS, 0.000781 µM
[24] = RPMI 5 mM glucose + 10% dialyzed FBS, 0.00234 µM
[25] = RPMI 5 mM glucose + 10% dialyzed FBS, 0.00702 µM
[26] = RPMI 5 mM glucose + 10% dialyzed FBS, 0.0211 µM
[27] = RPMI 5 mM glucose + 10% dialyzed FBS, 0.0632 µM
[28] = RPMI 5 mM glucose + 10% dialyzed FBS, 0.19 µM
[29] = RPMI 5 mM glucose + 10% dialyzed FBS, 0.569 µM
[30] = RPMI 5 mM glucose + 10% dialyzed FBS, 1.71 µM
[31] = RPMI 5 mM glucose + 10% dialyzed FBS, 5.12 µM
[32] = RPMI 5 mM glucose + 10% dialyzed FBS, 15.4 µM
[33] = RPMI 5 mM glucose + 10% dialyzed FBS, 46.1 µM

SMILES | cell viability [1] | cell viability [2] | cell viability [3] | cell viability [4] | cell viability [5] | cell viability [6] | cell viability [7] | cell viability [8] | cell viability [9] | cell viability [10] | cell viability [11] | cell viability [12] | cell viability [13] | cell viability [14] | cell viability [15] | cell viability [16] | cell viability [17] | cell viability [18] | cell viability [19] | cell viability [20] | cell viability [21] | cell viability [22] | cell viability [23] | cell viability [24] | cell viability [25] | cell viability [26] | cell viability [27] | cell viability [28] | cell viability [29] | cell viability [30] | cell viability [31] | cell viability [32] | cell viability [33]
N[C@@H](Cc1cc(I)c(Oc2cc(I)c(O)c(I)c2)c(I)c1)C(=O)O | 118% | 116% | 106% | 113% | 113% | 103% | 106% | 109% | 106% | 101% | 98.6% | 126% | 120% | 121% | 113% | 123% | 124% | 122% | 107% | 112% | 114% | 104% | 111% | 107% | 108% | 109% | 109% | 114% | 103% | 111% | 104% | 103% | 101%
CN(C)c1ccccc1CN1CCCN(Cc2ccccc2N(C)C)C1c1ccncc1 | 84.7% | 94.7% | 101% | 11.9% | 102% | 100% | 108% | 111% | 108% | 78.3% | 94.1% | 84% | 90.7% | 94% | 11% | 93.7% | 99% | 108% | 105% | 103% | 102% | 80.2% | 82.3% | 88.5% | 82.8% | 19.7% | 92.9% | 91.7% | 91.1% | 93.4% | 101% | 100% | 71.9%
NC(=O)[C@@H](CCC(F)(F)F)N(Cc1ccc(-c2ncon2)cc1F)[S+](=O)([O-])c1ccc(Cl)cc1 | 105% | 98.7% | 98.7% | 103% | 92.4% | 96.2% | 96.1% | 89.4% | 87.1% | 80% | 5.81% | 92.4% | 95% | 84.6% | 101% | 100% | 88.8% | 86.3% | 90.3% | 81.6% | 80.9% | 58% | 94.6% | 88.2% | 96.5% | 92.3% | 92.8% | 87.3% | 81.7% | 84.8% | 83.8% | 84.2% | 6.79%
COCCNCCCn1c(C(=O)CF)c(-c2ccc(C)cc2)c2c(N)ncnc21 | 108% | 95.8% | 104% | 102% | 111% | 103% | 102% | 95.1% | 85.3% | 94.5% | 87.2% | 118% | 100% | 108% | 103% | 107% | 104% | 101% | 103% | 104% | 96.7% | 91.7% | 103% | 96.7% | 116% | 98% | 106% | 101% | 105% | 89.8% | 94.7% | 83.7% | 72.2%
N[S+](=O)([O-])c1cc2c(cc1Cl)NCN[S+]2(=O)[O-] | 94.4% | 103% | 104% | 110% | 112% | 116% | 116% | 113% | 111% | 110% | 104% | 111% | 115% | 110% | 125% | 118% | 126% | 126% | 121% | 108% | 118% | 120% | 110% | 106% | 108% | 105% | 116% | 105% | 111% | 116% | 118% | 107% | 104%
O=C1C(CCC(O)c2ccc(F)cc2)C(c2ccc(O)cc2)N1c1ccc(F)cc1 (stereo not drawn) | 108% | 112% | 114% | 116% | 119% | 124% | 117% | 117% | 117% | 120% | 106% | 114% | 117% | 123% | 118% | 122% | 121% | 126% | 121% | 127% | 121% | 117% | 101% | 106% | 105% | 117% | 118% | 111% | 120% | 116% | 124% | 114% | 106%
